Laboratory results: patent US20250145633A1, “SUBSTITUTED FURANOPYRIMIDINE COMPOUNDS AS PDE1 INHIBITORS” (Dart NeuroScience, LLC, priority 2017, published 2025)

The molecules below were run against human PDE1B enzyme (Homo sapiens (Human), UniProt Q01064) (assay: IMAP TR-FRET PDE1B enzymatic assay). Conditions: not given.
Assay type: biochemical
Description: PDE1B inhibition was determined by an IMAP TR-FRET assay. The IMAP TR-FRET PDE assay was optimized for concentration of enzyme, Calmodulin, cAMP or cGMP substrate, DMSO tolerance, and incubation time.
Into each well of a solid white 1536 well plate (Corning) was dispensed 250 pg full-length recombinant NH-terminal GST tagged human PDE1B enzyme (BPS Bioscience Cat #60011, San Diego, CA) in 2.5 μL IMAP BSA reaction buffer (Molecular Devices, Sunnyvale, CA) containing 10 U/ml Calmodulin and 2.5 mM CaCl2) (Sigma Aldrich.) After a brief centrifugation, 30 nL of compound was added by transfer from 1 mM stock in DMSO using a Kalypsys 1536 Pintool. Plates were incubated for 5 minutes at room temperature before dispensing 1.5 μL of 533 nM 5-carboxy fluorescein (FAM)-labeled cAMP (Molecular Devices, Sunnyvale, CA) for a final concentration of 200 nM. After a brief centrifugation, the plates were incubated for 30 minutes at room temperature. The assay was terminated by adding 5 μL IMAP binding reagent/Tb complex (Molecular Devices, Sunnyvale, CA) to each well.
Plates were incubated for 1 hour at room temperature and were read on a Viewlux multimode plate reader (Perkin Elmer). The instrument was set to excite using the DUG11 filter and measure using 490/10 nm and 520/10 nm filters. Ratios of acceptor and donor were then calculated.
For IC50 calculations, the values of % efficacy versus a series of compound concentrations were then plotted using non-linear regression analysis of sigmoidal dose-response curves generated with the equation Y=[B+(T−B)]/[1+10((Log EC50−X)×Hill Slope)], where Y=percent activity, B=minimum percent efficacy, T=maximum percent efficacy, X=logarithm of compound and Hill Slope=slope factor or Hill coefficient. The IC50 value was determined by the concentration causing a half-maximal percent efficacy.

Row | SMILES | IC50
1 | Cc1oc2ncnc(NC3(C)CC3)c2c1C(=O)N1CCC(C#N)(c2ccccc2)CC1 [Example 274, 1-{6-Methyl-4-[(1-methylcyclopropyl)amino]furo[2,3-d]pyrimidine-5-carbonyl}-4-phenylpiperidine-4-carbonitrile] | 10 to 100 nM

Same assay, conditions: negative log of half-maximal molar inhibitory concentration; 200 nM FAM-cAMP; values given as bins

Row | SMILES | PDE1b (pIC50)
2 | Cc1oc2ncnc(NC3(C)CC3)c2c1C(=O)NCCOc1ccc(F)cc1 [Example 585, N-[2-(4-Fluorophenoxy)ethyl]-6-methyl-4-[(1-methylcyclopropyl)amino]furo[2,3-d]pyrimidine-5-carboxamide] | >8
3 | Cc1oc2ncnc(NC3(C)CC3)c2c1C(=O)NC(C)c1ccccc1 (stereo not drawn) [Example 194, 6-Methyl-4-[(1-methylcyclopropyl)amino]-N-(1-phenylethyl)furo[2,3-d]pyrimidine-5-carboxamide] | >8
4 | COc1cnc(C2CCN(C(=O)c3c(C)oc4ncnc(NC5(C)CC5)c34)CC2)nc1 [Example 370, 5-[4-(5-Methoxypyrimidin-2-yl)piperidine-1-carbonyl]-6-methyl-N-(1-methylcyclopropyl)furo[2,3-d]pyrimidin-4-amine] | >8
5 | COc1ccc(C(C)NC(=O)c2c(C)oc3ncnc(NC4(C)CC4)c23)cc1F (stereo not drawn) [Example 304, N-[1-(3-Fluoro-4-methoxyphenyl)ethyl]-6-methyl-4-[(1-methylcyclopropyl)amino]furo[2,3-d]pyrimidine-5-carboxamide] | >8
6 | Cc1nc(C2CCN(C(=O)c3c(C)oc4ncnc(NC5(C)CC5)c34)C2)ccc1F (stereo not drawn) [Example 799, 5-[3-(5-Fluoro-6-methylpyridin-2-yl)pyrrolidine-1-carbonyl]-6-methyl-N-(1-methylcyclopropyl)furo[2,3-d]pyrimidin-4-amine] | >8
7 | COc1ccc(C(C)NC(=O)c2c(C)oc3ncnc(NC4(C)CC4)c23)cc1OC (stereo in doubt) [Example 556, N-[(1R)-1-(3,4-Dimethoxyphenyl)ethyl]-6-methyl-4-[(1-methylcyclopropyl)amino]furo[2,3-d]pyrimidine-5-carboxamide] | >8
8 | Cc1oc2ncnc(NC3(C)CC3)c2c1C(=O)NCc1cccc(F)c1 [Example 217, N-[(3-Fluorophenyl)methyl]-6-methyl-4-[(1-methylcyclopropyl)amino]furo[2,3-d]pyrimidine-5-carboxamide] | >8
9 | Cc1oc2ncnc(NC3(C)CC3)c2c1C(=O)N1CCC(c2cccc(F)n2)C1 (stereo not drawn) [Example 532, 5-[3-(6-Fluoropyridin-2-yl)pyrrolidine-1-carbonyl]-6-methyl-N-(1-methylcyclopropyl)furo[2,3-d]pyrimidin-4-amine] | >8

Same assay, conditions: negative log of half-maximal molar inhibitory concentration; 200 nM FAM-cAMP; values given as bins; read-out: PDE1b (pIC50) (converted)

Row | SMILES | IC50
10 | Cc1oc2ncnc(NC3(C)CC3)c2c1C(=O)NCc1cccn1C [Example 111, 6-Methyl-N-[(1-methyl-1H-pyrrol-2-yl)methyl]-4-[(1-methylcyclopropyl)amino]furo[2,3-d]pyrimidine-5-carboxamide] | 10 to 100 nM
11 | Cc1oc2ncnc(NC3(C)CC3)c2c1C(=O)NCC1CCOCC1 [Example 139, 6-Methyl-4-[(1-methylcyclopropyl)amino]-N-(oxan-4-ylmethyl)furo[2,3-d]pyrimidine-5-carboxamide] | 10 to 100 nM
12 | Cc1oc2ncnc(NC3(C)CC3)c2c1C(=O)Nc1ccnn1C [Example 174, 6-Methyl-N-(1-methyl-1H-pyrazol-5-yl)-4-[(1-methylcyclopropyl)amino]furo[2,3-d]pyrimidine-5-carboxamide] | 100 to 1000 nM
13 | Cc1oc2ncnc(NC3(C)CC3)c2c1C(=O)N1CCc2c(ncnc2NC2CCOCC2)C1 [Example 794, 6-Methyl-N-(1-methylcyclopropyl)-5-f{4-[(oxan-4-yl)amino]-5H,6H,7H,8H-pyrido[3,4-d]pyrimidine-7-carbonyl}furo[2,3-d]pyrimidin-4-amine] | 10 to 100 nM
14 | C=C(C)c1ncnc2c1CCN(C(=O)c1c(C)oc3ncnc(NC4(C)CC4)c13)C2 [Example 804, 6-Methyl-N-(1-methylcyclopropyl)-5-[4-(prop-1-en-2-yl)-5H,6H,7H,8H-pyrido[3,4-d]pyrimidine-7-carbonyl]furo[2,3-d]pyrimidin-4-amine] | 10 to 100 nM
15 | COc1nc(C2CC2)nc2c1CN(C(=O)c1c(C)oc3ncnc(NC4(C)CC4)c13)C2 [Example 687, 5-{2-Cyclopropyl-4-methoxy-5H,6H,7H-pyrrolo[3,4-d]pyrimidine-6-carbonyl}-6-methyl-N-(1-methylcyclopropyl)furo[2,3-d]pyrimidin-4-amine] | 10 to 100 nM
16 | Cc1oc2ncnc(NC3(C)CC3)c2c1C(=O)NCc1ccn(C)n1 [Example 99, 6-Methyl-N-[(1-methyl-1H-pyrazol-3-yl)methyl]-4-[(1-methylcyclopropyl)amino]furo[2,3-d]pyrimidine-5-carboxamide] | 10 to 100 nM
17 | Cc1oc2ncnc(NC3(C)CC3)c2c1C(=O)N1CCc2nc(C3CCOCC3)ccc2C1 [Example 290, 6-Methyl-N-(1-methylcyclopropyl)-5-[2-(oxan-4-yl)-5,6,7,8-tetrahydro-1,6-naphthyridine-6-carbonyl]furo[2,3-d]pyrimidin-4-amine] | 10 to 100 nM
18 | Cc1oc2ncnc(NC3(C)CC3)c2c1C(=O)N1CCc2cncnc2C1 [Example 471, 6-Methyl-N-(1-methylcyclopropyl)-5-f{5H,6H,7H,8H-pyrido[3,4-d]pyrimidine-7-carbonyl}furo[2,3-d]pyrimidin-4-amine] | 10 to 100 nM
19 | Cc1oc2ncnc(NC3(C)CC3)c2c1C(=O)N1CCC(c2cccnc2)C1 (stereo not drawn) [Example 71, 6-Methyl-N-(1-methylcyclopropyl)-5-[3-(pyridin-3-yl)pyrrolidine-1-carbonyl]furo[2,3-d]pyrimidin-4-amine] | 10 to 100 nM
20 | Cc1oc2ncnc(NC3(C)CC3)c2c1C(=O)N1CC[C@@H]2OCC[C@@H]21 [Example 155, 5-[(3aS,6aS)-Hexahydro-2H-furo[3,2-b]pyrrole-4-carbonyl]-6-methyl-N-(1-methylcyclopropyl)furo[2,3-d]pyrimidin-4-amine] | 10 to 100 nM
21 | Cc1oc2ncnc(NC3(C)CC3)c2c1C(=O)Nc1ccn(C(C)C)n1 [Example 445, 6-Methyl-4-[(1-methylcyclopropyl)amino]-N-[1-(propan-2-yl)-1H-pyrazol-3-yl]furo[2,3-d]pyrimidine-5-carboxamide] | 10 to 100 nM
22 | COc1ccc2[nH]c(CNC(=O)c3c(C)oc4ncnc(NC5(C)CC5)c34)cc2c1 [Example 570, N-[(5-Methoxy-1H-indol-2-yl)methyl]-6-methyl-4-[(1-methylcyclopropyl)amino]furo[2,3-d]pyrimidine-5-carboxamide] | 10 to 100 nM
23 | CCN(Cc1cc(OC)ncn1)C(=O)c1c(C)oc2ncnc(NC3(C)CC3)c12 [Example 813, N-Ethyl-N-[(6-methoxypyrimidin-4-yl)methyl]-6-methyl-4-[(1-methylcyclopropyl)amino]furo[2,3-d]pyrimidine-5-carboxamide] | 100 to 1000 nM
24 | Cc1oc2ncnc(NC3(C)CC3)c2c1C(=O)NCc1cc([N+](=O)[O-])ccc1F [Example 614, N-[(2-Fluoro-5-nitrophenyl)methyl]-6-methyl-4-[(1-methylcyclopropyl)amino]furo[2,3-d]pyrimidine-5-carboxamide] | < 10 nM
25 | C=CCN(Cc1ccc(OC)cc1)C(=O)c1c(C)oc2ncnc(NC3(C)CC3)c12 [Example 508, N-[(4-Methoxyphenyl)methyl]-6-methyl-4-[(1-methylcyclopropyl)amino]-N-(prop-2-en-1-yl)furo[2,3-d]pyrimidine-5-carboxamide] | 10 to 100 nM
26 | Cc1oc2ncnc(NC3(C)CC3)c2c1C(=O)NCc1cnc(Cl)cn1 [Example 8, N-((5-Chloropyrazin-2-yl)methyl)-6-methyl-4-((1-methylcyclopropyl)amino)furo[2,3-d]pyrimidine-5-carboxamide] | 10 to 100 nM
27 | CCOc1ccc(CNC(=O)c2c(C)oc3ncnc(NC4(C)CC4)c23)cc1OC [Example 509, N-[(4-Ethoxy-3-methoxyphenyl)methyl]-6-methyl-4-[(1-methylcyclopropyl)amino]furo[2,3-d]pyrimidine-5-carboxamide] | 10 to 100 nM
28 | Cc1oc2ncnc(NC3(C)CC3)c2c1C(=O)N1CCc2c(nc(C(C)C)[nH]c2=O)C1 [Example 22, 2-Isopropyl-7-(6-methyl-4-((1-methylcyclopropyl)amino)furo[2,3-d]pyrimidine-5-carbonyl)-5,6,7,8-tetrahydropyrido[3,4-d]pyrimidin-4(3H)-one] | 10 to 100 nM
29 | Cc1oc2ncnc(NC3(C)CC3)c2c1C(=O)n1cc(-c2ccc(F)cc2)cn1 [Example 407, 5-[4-(4-Fluorophenyl)-1H-pyrazole-1-carbonyl]-6-methyl-N-(1-methylcyclopropyl)furo[2,3-d]pyrimidin-4-amine] | 10 to 100 nM
30 | Cc1oc2ncnc(NC3(C)CC3)c2c1C(=O)NCCF [Example 125, N-(2-Fluoroethyl)-6-methyl-4-[(1-methylcyclopropyl)amino]furo[2,3-d]pyrimidine-5-carboxamide] | 10 to 100 nM
